Patent publication US5026829A, “Cyclo substituted propyleneamine oxime and its use as a brain imaging agent” (University of Cincinnati, priority 1989, dated 1991)
Blank lines part the entries; values can stand above or below the compound they belong to.

What was measured:
[1] = Whole body biodistribution by single photon emission computed tomography in normal human volunteers; assay type: in vivo; details: intravenous, about 13 millicurries, in %
Experimental: (§1) In order to test the whole body biodistribution of the 99m-Tc CB-PAO tracer, three normal human volunteers were tested using single photon emission computed tomography. Whole body images were obtained at 15 minutes, two hours and five hours after an intraveneous injection of about 13 millicurries of Tc-99m d,l-CB-PAO. A dynamic study during the first ten minutes after administration of the tracer defined the time activity curve for brain uptake. The tomographic study was performed at one hour after administration. Venous blood samples were collected at various times up to five hours after administration and urine was collected up to 24 hours after administration.

[2] = Brain uptake, retention and tomographic brain imaging in normal human volunteers; assay type: in vivo
Experimental: as §1
The decrease in cerebral activity is only about 5% between 15 minutes and 2 hours after injection. Approximately 24% of the injected dose is cleared through the renal system within five hours and approximately 37% is cleared within 24 hours.

[3] = Renal clearance (urine collection) in normal human volunteers; assay type: in vivo
Experimental: as §1

[4] = In vitro stability of 99m-Tc-CB-PAO after pH lowering with gentisic acid; assay type: physicochemical; details: about 6mM gentisic acid solution added
Experimental: The d,l isomer is then complexed with 99m-technetium to obtain a brain perfusion imaging agent. To formulate the 99m-Tc-d,l-CB-PAO 5ml of a ligand solution is placed into an evacuated 10 ml vial. The ligand solution contained approximately 0.5 mg/ml of ligand. One hundred and fifty microliters of a tin chloride solution containing 10 mg of tin chloride per 50 ml in water was added. Ten to one hundred microliters of 99m-pertechnetate sodium solution eluted from a molybdenum 99 generator is added to the vial and this is shaken for 10 seconds. An imaging solution can be immediately removed for use.
However, it is preferable that the pH of the solution which upon addition of the stanous chloride is about 8.9 be lowered. Accordingly, gentisic acid was used to lower the pH of the complex. A solution of gentisic acid was made by dissolving 0.0303g of gentisic acid and 30ml saline. 3.0 milliliters of this solution was pipetted into another vial.
An additional 30ml of saline was added. This latter vial was purged with argon for 50 minutes and sealed to yield a solution of about […] in gentisic acid. 1.0-1.2ml of the above solution was added to a 10 ml evacuated vial. 2.5 milliliters of 99m-Tc-CB-PAO previously prepared is then added to this evacuated vial. This was then tested for stability. At 15 minutes, 100% of the 99m-Tc-CB-PAO remained. At 165 minutes again 100% of the 99m-Tc-CB-PAO remained. At 18 hours 98% of the 99m-Tc-CB-PAO remained.

[5] = Comparative in vitro stability of 99m-Tc CB-PAO and 99m-Tc HM-PAO prepared in the same vial (HPLC); assay type: physicochemical; details: for Stabilization: CB relative to HM; for CB/HM: ratio of CB to HM percentage; for in vitro stability, in words: 13.4 hours; for percentage of 99m-Tc complex (CB or HM): same vial, HPLC
Experimental: In order to test the in vitro stability of the 99m-Tc-CB-PAO, 99m-Tc-CB-PAOand 99m-Tc-HMPAO were prepared in the same vial. The CB-PAO and HM-PAO agents were both reacted with pertechnetate in the same vial. This insures that both compositions were subjected to the same characteristics. These were then tested using HPLC. The results showing the percentage of 99m-Tc CB-PAO (labeled CB) and 99m-Tc HM-PAO labeled HM are shown in Table 1 over a period of 0 minutes to 13.4 hours.

[6] = background statement; cited from earlier work
[7] = cited from earlier work

Whole body distribution, Bladder & Urine ([1]; 15'): 4.2 ± 1.36
Whole body distribution, Blood ([1]; 15'): 14.9 ± 0.79
Whole body distribution, Brain ([1]; 15'): 3.6 ± 0.26
Whole body distribution, Gallbladder ([1]; 15'): 2.2 ± 0.05
Whole body distribution, Liver ([1]; 15'): 26.4 ± 7.1
Whole body distribution, Lungs ([1]; 15'): 4.0 ± 0.85
Whole body distribution, Bladder & Urine ([1]; 2h): 19.4 ± 8.4
Whole body distribution, Blood ([1]; 2h): 8.3 ± 0.7
Whole body distribution, Brain ([1]; 2h): 3.5 ± 0.15
Whole body distribution, Gallbladder ([1]; 2h): 2.8 ± 0.7
Whole body distribution, Liver ([1]; 2h): 25.4 ± 7.
Whole body distribution, Lungs ([1]; 2h): 3.1 ± 0.70
Whole body distribution, Bladder & Urine ([1]; 5h): 23.5 ± 2.80
Whole body distribution, Blood ([1]; 5h): 5.8 ± 0.45
Whole body distribution, Brain ([1]; 5h): 3.5 ± 0.11
Whole body distribution, Gallbladder ([1]; 5h): 1.7 ± 0.65
Whole body distribution, Liver ([1]; 5h): 22.3 ± 9.5
Whole body distribution, Lungs ([1]; 5h): 2.7 ± 0.72
decrease in cerebral activity ([2]; between 15 minutes and 2 hours after injection): about 5%
stability of brain uptake, in words ([2]; up to five hours after injection): stable for up to five hours
injected dose taken up by the brain ([2]; within the first five minutes after intravenous injection): Approximately 3.6 % of the injected dose
injected dose cleared through the renal system ([3]; within 24 hours): approximately 37 % of the injected dose
injected dose cleared through the renal system ([3]; within five hours, 300 min): Approximately 24 % of the injected dose
99m-Tc-CB-PAO remaining ([4]; 15 minutes): 100%
99m-Tc-CB-PAO remaining ([4]; 165 minutes): 100%
99m-Tc-CB-PAO remaining ([4]; 18 hours): 98%
Stabilization ([5]; 23 min): 30%
CB/HM ([5]; 23 min): 1.85
Stabilization ([5]; 74 min): 50%
CB/HM ([5]; 74 min): 2.04
Stabilization ([5]; 3.3 h): 53%
CB/HM ([5]; 3.3 h): 2.11
Stabilization ([5]; 12.2 h): 140%
CB/HM ([5]; 12.2 h): 3.29
Stabilization ([5]; 13.4 h): 160%
CB/HM ([5]; 13.4 h): 3.58
in vitro stability, in words [5]: most of the 99m-Tc CB-PAO remained
Stabilization ([5]; time 0): 0%
CB/HM ([5]; time 0): 1.40
percentage of 99m-Tc complex (CB or HM) ([5]; time 0): 55.2%
Structure (SMILES): CC1=[N+]([O-])[99Tc-2]23(=[O])[N](CC4(CCC4)C[N]2C(C)C(C)=[N+]3O)C1C (racemic) [99m-Tc CB-PAO]
tomographic brain image quality, in words ([2]; tomographic study at one hour after administration): good definition of cerebral structures and good distinction between grey and white matter
in vitro stability compared with the prior art brain imaging agent, in words ([5]; vs 99m-Tc HM-PAO): substantially more stable in vitro than the prior art brain imaging agent

in vitro stability, in words [5]: most of the 99m-Tc HM-PAO had decomposed
percentage of 99m-Tc complex (CB or HM) ([5]; time 0): 39.5%
Structure (SMILES): C/C(=N\O)[C@@H](C)NCC(C)(C)CN[C@H](C)/C(C)=N/O [99m-Tc HM-PAO, 4,8,-diaza-3,6,6,9-tetramethyl undecane-2,10-dione bisoxime, metal not drawn]
brain passage and retention, in words [6]: passes through the blood brain barrier, is theoretically altered in some way, and remains in the brain for a period of time sufficient to obtain a successful brain image
aqueous in vitro degradation rate, in words ([7]; J. Nucl. Med. 1988): slow
time after formulation within which it must be administered ([7]; aqueous, without stabilizer, J. Nucl. Med. 1988): ≤ 30 min
time after preparation within which it must be used, in words ([7]; stabilized with gentisic acid within 30 seconds after formation): must be used within hours after preparation
